According to patent US20210238139A1, “MODULATORS OF TRYPTOPHAN CATABOLISM” (E-Therapeutics PLC, priority 2018, published 2021):

What was measured:
[1] = tested on: SK-OV-3 cells; assay: Effect of compounds on tryptophan catabolism in SK-OV-3 cell line (inhibition of kynurenine production, LC-MS/MS); assay type: cell-based; settings: Homo sapiens, SK-OV-3, 24 h, SK-OV-3 cell line, 24 h incubation, kynurenine in supernatant by LC-MS/MS; read-out: IC50 Ranges (ic50 values for inhibition of Kynurenine production)
Method in brief: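 Cells seeded overnight in McCoy's 5A/10% FBS, then switched to DMEM F-12 with 6 mg/mL L-tryptophan; compounds added at 8 3-fold dilutions from 30 μM, in duplicate, 24 h at 37 °C. Supernatant kynurenine measured by LC-MS/MS; ATP-based viability run in parallel; IC50 from % inhibition of Kyn production.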

[2] = molecular target: T1, TDO2 enzyme (Homo sapiens, UniProt P48775); assay: TDO2 enzyme inhibition assay (hTDO2 assay kit, NFK-green); settings: TDO2 enzyme 50 nM, tryptophan 200 μM, top concentration 30 μM; read-out: TDO2 Biochemical assay IC50
T1 construct: purchased Netherlands Translational Research Center B.V. NTRC-hTDO-1K
Protocol: The effect of compounds on TDO2 enzymatic activity was assess by use of an hTDO2 assay kit (Netherlands Translational Research Center B.V., Cat #NTRC-hTDO-1K). TDO2 enzyme and tryptophan substrate are diluted in assay buffer. Compounds are tested at 8 consecutive 3-fold dilutions starting from 30 μM. 267 nL of compound is added per well of a 384-well plate followed by addition of 10 μL of assay buffer. TDO2 enzyme is added at a final concentration of 50 nM and pre-incubated for 60 min at room temperature in the dark. Tryptophan substrate solution is then added at final concentration of 200 μM to all wells and the plate incubated for 15 min at RT in the dark. Finally NFK-green reagent is added at ⅕ of total reaction volume and incubated for 4 h at RT in the dark. After incubation fluorescence is measured at Ex405 nm-Em535 nm using EnVision plate reader.
(§1) IC50 values are determined using GraphPad Prism software 5.04 for Windows by plotting percent of inhibition against log 10 concentrations of compounds using a four-parametric sigmoidal curve with a variable slope.

[3] = molecular target: T2, IDO1 enzyme (Homo sapiens, UniProt P14902); assay: IDO1 enzyme inhibition assay (hIDO assay kit, NFK-green); settings: IDO1 enzyme 25 nM, tryptophan 100 μM, top concentration 30 μM; read-out: IDO1 Biochemical assay IC50
T2 construct: purchased Netherlands Translational Research Center B.V. NTRC-hIDO-1K
Protocol: The effect of compounds on IDO1 enzymatic activity was assessed by use of a hIDO assay kit (Netherlands Translational Research Center B.V., Cat #NTRC-hIDO-1K). IDO1 enzyme and tryptophan substrate are diluted in assay buffer. Compounds are tested at 8 consecutive 3-fold dilutions starting from 30 μM. 267 nL of compound is added per well of a 384-well plate followed by addition of 10 μL of assay buffer. IDO1 enzyme is added at a final concentration of 25 nM and pre-incubated for 30 min at room temperature in the dark. Tryptophan substrate solution is then added at final concentration of 100 μM to all wells and the plate incubated for 60 min at RT in the dark. Finally NFK-green reagent is added at ⅕ of total reaction volume and incubated for 4 h at RT in the dark. After incubation fluorescence is measured at Ex405 nm-Em535 nm using EnVision plate reader.
as §1

T1 sequence (P48775 whole entry): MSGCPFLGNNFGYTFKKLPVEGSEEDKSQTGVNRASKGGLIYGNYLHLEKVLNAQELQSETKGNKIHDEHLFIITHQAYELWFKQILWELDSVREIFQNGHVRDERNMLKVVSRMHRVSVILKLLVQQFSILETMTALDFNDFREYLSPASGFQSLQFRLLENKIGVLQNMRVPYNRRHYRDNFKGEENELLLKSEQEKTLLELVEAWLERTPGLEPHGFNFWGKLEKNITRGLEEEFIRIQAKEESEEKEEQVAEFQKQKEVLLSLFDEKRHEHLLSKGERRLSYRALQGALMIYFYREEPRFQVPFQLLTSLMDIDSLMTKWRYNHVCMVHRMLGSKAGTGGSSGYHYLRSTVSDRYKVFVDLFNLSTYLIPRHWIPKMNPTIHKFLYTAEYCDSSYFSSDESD
T2 sequence (P14902 whole entry): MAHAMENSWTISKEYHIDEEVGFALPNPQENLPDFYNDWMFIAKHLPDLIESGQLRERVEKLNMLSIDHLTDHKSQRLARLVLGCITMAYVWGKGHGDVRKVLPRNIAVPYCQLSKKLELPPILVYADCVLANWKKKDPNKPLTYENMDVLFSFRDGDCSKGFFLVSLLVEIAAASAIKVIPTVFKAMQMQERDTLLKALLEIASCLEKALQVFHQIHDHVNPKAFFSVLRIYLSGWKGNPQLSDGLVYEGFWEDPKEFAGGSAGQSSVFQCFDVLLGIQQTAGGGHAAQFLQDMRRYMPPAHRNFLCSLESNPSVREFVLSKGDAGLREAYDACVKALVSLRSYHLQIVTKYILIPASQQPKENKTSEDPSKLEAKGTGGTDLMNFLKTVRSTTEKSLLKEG

Row | IC50 [1] [µM] | IC50 [2] [µM] | IC50 [3] [µM] | Structure (SMILES)
1 | < 0.1 | > 30 |  | Cc1ccc(C(C)N(C(=O)Nc2ccc(Cl)cc2)C2CCCC2)o1 (racemic) [Compound 185, 3-(4-chlorophenyl)-1-cyclopentyl-1-[1-(5-methyl-2-furyl)ethyl]urea]
2 | 1 to 5 | > 30 |  | CCc1ccc(NC(=O)N(Cc2ccccn2)C2CCCCC2)cc1 [Compound 21, 1-cyclohexyl-3-(4-ethylphenyl)-1-(2-pyridylmethyl)urea]
3 | > 5 | > 30 |  | O=C(Nc1ccccc1)N(Cc1ccncc1)C1CCCC1 [Compound 74, 1-cyclopentyl-3-phenyl-1-(4-pyridylmethyl)urea]
4 | < 0.1 | > 30 |  | Cc1ccc(CN(C(=O)Nc2ccc(Cl)nc2)C2CCCC2)o1 [Compound 92, 3-(6-chloro-3-pyridyl)-1-cyclopentyl-1-[(5-methyl-2-furyl)methyl]urea]
5 | > 5 | > 30 |  | Cc1ccc(CN(C(=O)Nc2ccc(F)c(O)c2)C2CCCC2)o1 [Compound 104, 1-cyclopentyl-3-(4-fluoro-3-hydroxy-phenyl)-1-[(5-methyl-2-furyl)methyl]urea]
6 | 0.1 to 0.5 | > 30 |  | Cc1ccc(CN(C(=O)Nc2ccc(-c3cnoc3)cc2)C2CCCC2)o1 [Compound 105, 1-cyclopentyl-3-(4-isoxazol-4-ylphenyl)-1-[(5-methyl-2-furyl)methyl]urea]
7 | 0.1 to 0.5 | > 30 |  | Cc1ccc(CN(C(=O)Nc2ccc(C#CCN)cc2)C2CCCC2)o1 [Compound 110]
8 | > 5 | > 30 |  | Cc1ccc(CN(C(=O)Nc2ccc(N3CCOCC3)cc2)C2CCCC2)o1 [Compound 123, 1-cyclopentyl-1-[(5-methyl-2-furyl)methyl]-3-(4-morpholinophenyl)urea]
9 | < 0.1 | > 30 |  | O=C(Nc1ccc(Cl)cc1)N(Cc1cc2ccccc2o1)C1CCCC1 [Compound 130, 1-(benzofuran-2-ylmethyl)-3-(4-chlorophenyl)-1-cyclopentyl-urea]
10 | < 0.1 |  | > 30 | N#Cc1ccc(NC(=O)N(Cc2ccc3ncsc3c2)C2CCC2)cc1 [Compound 213, 1-(1,3-benzothiazol-6-ylmethyl)-3-(4-cyanophenyl)-1-cyclobutyl-urea]
11 | > 5 |  | > 30 | Cc1ccc(CN(C(=O)Nc2ccc(C#N)cc2)c2ccnn2C)o1 [Compound 215, 3-(4-cyanophenyl)-1-[(5-methyl-2-furyl)methyl]-1-(2-methylpyrazol-3-yl)urea]
12 | > 5 |  | > 30 | Cc1ccc(CN(C(=O)Nc2ccc(Cl)cc2)c2ccnn2C)o1 [Compound 220, 3-(4-chlorophenyl)-1-[(5-methyl-2-furyl)methyl]-1-(2-methylpyrazol-3-yl)urea]
13 | < 0.1 |  | > 30 | Cc1ccc(CN(C(=O)Nc2ccc(Cl)cc2)c2cnoc2C)o1 [Compound 256, 3-(4-chlorophenyl)-1-[(5-methyl-2-furyl)methyl]-1-(5-methylisoxazol-4-yl)urea]
14 | < 0.1 |  | > 30 | Cc1ccc(CN(C(=O)Nc2ccc(C#N)cc2)c2cnoc2C)o1 [Compound 257, 3-(4-cyanophenyl)-1-[(5-methyl-2-furyl)methyl]-1-(5-methylisoxazol-4-yl)urea]
15 | 0.1 to 0.5 |  | > 30 | O=C(Nc1ccc(Cl)cc1)N(Cc1cn2ccsc2n1)C1CCC1 [Compound 269, 3-(4-chlorophenyl)-1-cyclobutyl-1-(imidazo[2,1-b]thiazol-6-ylmethyl)urea]
16 | 0.5 to 1 |  | > 30 | N#Cc1ccc(NC(=O)N(Cc2cn3ccsc3n2)C2CCC2)cc1 [Compound 270, 3-(4-cyanophenyl)-1-cyclobutyl-1-(imidazo[2,1-b]thiazol-6-ylmethyl)urea]

Row | IC50 [1] [µM] | IC50 [2] [µM] | IC50 [3] [µM] | Structure (SMILES)
17 | 1 to 5 |  | > 30 | Cn1nccc1N(Cc1ccc2ncsc2c1)C(=O)Nc1ccc(C#N)cc1 [Compound 276, 1-(1,3-benzothiazol-6-ylmethyl)-3-(4-cyanophenyl)-1-(2-methyl-iH-pyrazol-3-yl) urea]
18 | < 0.1 |  |  | Cc1nocc1N(Cc1cccc(C(F)(F)F)c1)C(=O)Nc1ccc(C#CCO)cc1 [Compound 315, 3-[4-(3-hydroxyprop-1-ynyl)phenyl]-1-(3-methylisoxazol-4-yl)-1-[[3-(trifluoromethyl)phenyl]methyl]urea]
19 | > 5 |  |  | Cc1ncc(CN(C(=O)Nc2ccc(C#N)cc2)c2conc2C)o1 [Compound 316, 3-(4-cyanophenyl)-(3-methylisoxazol-4-yl)-1-[(2-methyloxazol-5-yl)methyl]urea]
20 | 1 to 5 |  |  | Cc1ccc(CN(C(=O)Nc2ccc(C3COC3)cc2)C2CCCC2)o1 [Compound 317, 1-cyclopentyl-1-[(5-methyl-2-furyl)methyl]-3-[4-(oxetan-3-yl)phenyl]urea]
21 | < 0.1 |  |  | Cc1ccc(CN(C(=O)Nc2ccc(Cl)cc2)c2ncccc2C)o1 [Compound 318, 3-(4-chlorophenyl)-1-[(5-methyl-2-furyl)methyl]-1-(3-methyl-2-pyridyl)urea]
22 | < 0.1 |  |  | N#Cc1cccc(CN(C(=O)Nc2ccc(C#CCO)cc2)C2CCC2)n1 [Compound 319]
23 | 0.1 to 0.5 |  |  | Cc1cn(-c2ccc(NC(=O)N(Cc3ccc(C)o3)C3CCCC3)cc2)nn1 [Compound 320, 1-cyclopentyl-1-[(5-methyl-2-furyl)methyl]-3-[4-(4-methyltriazol-1-yl)phenyl]urea]
24 | 1 to 5 |  |  | Cc1ncc(CN(C(=O)Nc2ccc(C#CCO)cc2)c2conc2C)o1 [Compound 321, 3-[4-(3-hydroxyprop-1-ynyl)phenyl]-1-(3-methylisoxazol-4-yl)-1-[(2-methyloxazol-5-yl)methyl]urea]
25 | < 0.1 |  |  | Cc1ccc(CN(C(=O)Nc2ccc(C#N)cc2)c2nonc2C)o1 [Compound 322, 3-(4-cyanophenyl)-1-[(5-methyl-2-furyl)methyl]-1-(4-methyl-1,2,5-oxadiazol-3-yl)urea]
26 | 0.1 to 0.5 |  |  | COc1cc(NC(=O)N(Cc2ccc(C)o2)C2CCCC2)ccc1-n1cc(CO)nn1 [Compound 323, 1-cyclopentyl-[4-[4-(hydroxymethyl)triazol-1-yl]-3-methoxy-phenyl]-1-[(5-methyl-2-furyl)methyl]urea]
27 | > 5 |  |  | Cc1ccc(CN(C(=O)Nc2ccc(C#N)cc2)c2ncccn2)o1 [Compound 324, 3-(4-cyanophenyl)-1-[(5-methyl-2-furyl)methyl]-1-pyrimidin-2-yl-urea]
28 | > 5 |  |  | Cc1nocc1N(CC1CCC2(CC1)COC2)C(=O)Nc1ccc(C#N)cc1 [Compound 325, 3-(4-cyanophenyl)-(3-methylisoxazol-4-yl)-1-(2-oxaspiro[3.5]nonan-7-ylmethyl)urea]
29 | > 5 |  |  | Cc1nocc1N(CC1CCC2(CC1)COC2)C(=O)Nc1ccc(Cl)cc1 [Compound 326, 3-(4-chlorophenyl)-1-(3-methylisoxazol-4-yl)-1-(2-oxaspiro[3.5]nonan-7-ylmethyl)urea]
30 | 1 to 5 |  |  | Cc1ccc(CN(C(=O)Nc2ccc(Cl)cc2)c2ncccn2)o1 [Compound 327, 3-(4-chlorophenyl)-1-[(5-methyl-2-furyl)methyl]-1-pyrimidin-2-yl-urea]
31 | < 0.1 |  |  | Cc1ccc(CN(C(=O)Nc2ccc(Cl)cc2)c2csnc2C)o1 [Compound 328, 3-(4-chlorophenyl)-1-[(5-methyl-2-furyl)methyl]-1-(3-methylisothiazol-4-yl)urea]
